Like-named read-outs stand apart in the source and are kept apart here.
Legend:
[1] = rat, in vivo
[2] = Bioavailability enhancement of a drug/nutraceutical/herbal product given with bioenhancer (BE) to fasted rats; plasma drug level by HPLC, 0-24 hrs; conditions: for % Enhancement in bioavailability, Piperine + BE from Zingiber officinale: drug + piperine 8 mg/kg + BE from Zingiber officinale

Row | SMILES | % Enhancement in bioavailability, Piperine + BE from Zingiber officinale [1] | % Enhancement in bioavailability, Piperine + BE from Zingiber officinale [2] [%] | also measured
1 | CC1COc2c(N3CCN(C)CC3)c(F)cc3c(=O)c(C(=O)O)cn1c23 (centres unmarked) [O-floxacin, Ofloxacin] | 67% | – | –
2 | CN1C(C(=O)Nc2ccccn2)=C(O)c2ccccc2S1(=O)=O [Piroxicam] | 134% | – | –
3 | CC(=O)N1CCN(c2ccc(OCC3COC(Cn4ccnc4)(c4ccc(Cl)cc4Cl)O3)cc2)CC1 (centres unmarked) [Ketoconazole] | – | 100 | –
4 | CC(C)NCC(O)COc1cccc2ccccc12 (centres unmarked) [Propranolol] | – | 104 | –
5 | CO[C@H]1/C=C/O[C@@]2(C)Oc3c(C)c(O)c4c(O)c(c(/C=N/N5CCN(C)CC5)c(O)c4c3C2=O)NC(=O)/C(C)=C\C=C\[C@H](C)[C@H](O)[C@@H](C)[C@@H](O)[C@@H](C)[C@H](OC(C)=O)[C@@H]1C [Rifampicin] | – | 98 | –
6 | C=CC1=C(C(=O)O)N2C(=O)[C@@H](NC(=O)/C(=N\OCC(=O)O)c3csc(N)n3)[C@H]2SC1 [Cefixime] | Nil | – | –
7 | O=C(O)Cc1ccccc1Nc1c(Cl)cccc1Cl [Diclofenac] | 140% | – | –
8 | CCc1cc(C(N)=S)ccn1 [Ethionamide] | – | 48 | –
9 | CCn1cc(C(=O)O)c(=O)c2cc(F)c(N3CCNCC3)cc21 [Norfloxacin] | Negligible | – | –
10 | Nc1ccc(S(=O)(=O)c2ccc(N)cc2)cc1 [Dapsone] | – | 55 | –
11 | CC1(C)S[C@@H]2[C@H](NC(=O)[C@H](N)c3ccc(O)cc3)C(=O)N2[C@H]1C(=O)O [Amoxycillin] | – | 90 | –
12 | CN(Cc1cnc2nc(N)nc(N)c2n1)c1ccc(C(=O)N[C@@H](CCC(=O)O)C(=O)O)cc1 [Methotrexate] | – | 49 | –
13 | CCOC(=O)C1=C(COCCN)NC(C)=C(C(=O)OC)C1c1ccccc1Cl (centres unmarked) [Amlodipine] | 95% | – | –
14 | Cn1c(=O)c2[nH]cnc2n(C)c1=O [Theophylline] | – | 80 | –
15 | NNC(=O)c1ccncc1 [Isoniazid] | Negligible | – | –
16 | Cc1nnc2n1-c1ccc(Cl)cc1C(c1ccccc1)=NC2 [Aiprazolam, Alprazolam] | – | 70 | –
17 | Nc1nc2c(ncn2COCCO)c(=O)[nH]1 [Acyclovir] | 85% | – | –
18 | CNC(=C[N+](=O)[O-])NCCSCc1ccc(CN(C)C)o1 [Ranitidine] | 165% | – | –
19 | NCCCC[C@H](N[C@@H](CCc1ccccc1)C(=O)O)C(=O)N1CCC[C@H]1C(=O)O [Lisinopril] | – | 100 | –

Row | SMILES | % Enhancement in bioavailability, Piperine + BE from Zingiber officinale [1] | % Enhancement in bioavailability, Piperine + BE from Zingiber officinale [2] [%] | also measured
20 | NCC[C@H](O)C(=O)N[C@@H]1C[C@H](N)[C@@H](O[C@H]2O[C@H](CN)[C@@H](O)[C@H](O)[C@H]2O)[C@H](O)[C@H]1O[C@H]1O[C@H](CO)[C@@H](O)[C@H](N)[C@H]1O [Amikacin] | Nil | – | –
21 | CC[C@@H](CO)NCCN[C@@H](CC)CO [Ethambutol] | Nil | – | –
22 | CC[C@H]1OC(=O)[C@H](C)[C@@H](O[C@H]2C[C@@](C)(OC)[C@@H](O)[C@H](C)O2)[C@H](C)[C@@H](O[C@@H]2O[C@H](C)C[C@H](N(C)C)[C@H]2O)[C@](C)(O)C[C@@H](C)C(=O)[C@H](C)[C@@H](O)[C@]1(C)O [Erythromycin] | 105% | – | –
23 | CS(=O)(=O)Nc1ccc([N+](=O)[O-])cc1Oc1ccccc1 [Nimesulide] | – | 165 | –
24 | CN(Cc1cc(Br)cc(Br)c1N)C1CCCCC1 [Bromhexine] | – | 75 | % Enhancement in bioavailability, BE from Zingiber officinale ([2]; drug + BE from Zingiber officinale (extract 30 mg/kg or fraction No 1 15 mg/kg)): 46%
25 | C=CC[C@@H]1/C=C(\C)C[C@H](C)C[C@H](OC)[C@H]2O[C@@](O)(C(=O)C(=O)N3CCCC[C@H]3C(=O)O[C@H](/C(C)=C/[C@@H]3CC[C@@H](O)[C@H](OC)C3)[C@H](C)[C@@H](O)CC1=O)[C@H](C)C[C@@H]2OC [Tacrolimus] | 117% | – | –
26 | Cc1cn([C@H]2C[C@H](N=[N+]=[N-])[C@@H](CO)O2)c(=O)[nH]c1=O [Zidovudine] | – | 126 | –
27 | CC[C@H]1OC(=O)[C@H](C)[C@@H](O[C@H]2C[C@@](C)(OC)[C@@H](O)[C@H](C)O2)[C@H](C)[C@@H](O[C@@H]2O[C@H](C)C[C@H](N(C)C)[C@H]2O)[C@](C)(O)C[C@@H](C)CN(C)[C@H](C)[C@@H](O)[C@]1(C)O [Azithromycin] | 85% | – | –
28 | CN/C(=N/CCSCc1nc[nH]c1C)NC#N [Cimetidine] | – | 76 | –
29 | CC[C@H]1OC(=O)[C@H](C)[C@@H](O[C@H]2C[C@@](C)(OC)[C@@H](O)[C@H](C)O2)[C@H](C)[C@@H](O[C@@H]2O[C@H](C)C[C@H](N(C)C)[C@H]2O)[C@](C)(O)C[C@@H](C)/C(=N\OCOCCOC)[C@H](C)[C@@H](O)[C@]1(C)O [Roxythromycin] | 93% | – | –
30 | Cc1onc(-c2ccccc2Cl)c1C(=O)N[C@@H]1C(=O)N2[C@@H]1SC(C)(C)[C@@H]2C(=O)O [Cloxacillin] | 90% | – | –
31 | N[C@@H]1CON=C1O [Cycloserine] | 70% | – | –
32 | COc1ccc2[nH]c([S+]([O-])Cc3ncc(C)c(OC)c3C)nc2c1 (centres unmarked) [Omeprazole] | Nil | – | –
33 | CC1=C(C(=O)O)N2C(=O)[C@@H](NC(=O)[C@H](N)c3ccc(O)cc3)[C@H]2SC1 [Cefadroxil] | 65% | – | –
34 | O=c1[nH]cc(F)c(=O)[nH]1 [5-Fluorouracil] | – | 93 | –
35 | NC(=O)c1cnccn1 [Pyrazinamide] | Nil | – | –
36 | CC(C)(C)NCC(O)c1ccc(O)c(CO)c1 (centres unmarked) [Salbutamol] | – | 92 | –
37 | COc1cccc2c1C(=O)c1c(O)c3c(c(O)c1C2=O)C[C@@](O)(C(=O)CO)C[C@@H]3O[C@H]1C[C@H](N)[C@H](O)[C@H](C)O1 [Doxorubicin] | – | 75 | –

Reference: patent US20030170326A1, “Bioavailability enchancing activity of Zingiber officinale Linn and its extracts/fractions thereof” (COUNCIL OF SCIENTIFIC AND INDUSTRIAL RESEARCH, priority 2001, published 2003)
